The text below walks through data of patent publication US20050143346A1, “Composition for treating cancer containing n,n-dimethylphytosphingosine” (priority 2002, published 2005).

One assay relates to HaCaT cell. The assay can be described thus: MTT assay, apoptosis inducing effect on HaCaT cell. In kind it is cell-based. To be noted: FIG. 5. On the procedure: (§1) This experiment was performed by MTT assay. MTT (3-[4,5-Dimethylthiazol-2-yl]-2,5-diphenyltetrazolium) is a staining reagent displaying yellow color when it is dissolved in medium, but it is discolored to violet formazan by active dehydrogenase in mitochondria of viable cell. […] HL60 cell lines were seeded to 96-well plate at appropriate concentration, and incubated in 5% CO2 incubator at 37° C. for 24 hrs. Thereafter, individual sample to be assessed on apoptosis effect, i.e. phytosphingosine, C2 phytoceramide, tetraacetylphytosphingosine, C6 phytoceramide, C8 phytoceramide, C3 ceramide, sphinganine, dimethylsphingosine and dimethylphytosphingosine was diluted with serum free RPMI. Cells were treated with […]˜50 µM of the dilutions, and incubated for 24 hrs. MTT (final concentration: 0.5 mg/ml) was loaded to the individual well. After incubating for another 3 hrs and dissolving the staining reagent with pipette, the absorbance was measured at 570 nm.
This Experiment was carried out in an identical manner to that described for example 3, except for using HaCaT cell to induce apoptosis.
For orientation: Tetrazolium dyes change colour on reduction, which living cells bring about.

Assay [1] has as its system sphingosine kinase from mouse. The assay can be described thus: Inhibition of sphingosine kinase activity ([32P]ATP, sphingosine-1-phosphate formation). In kind it is biochemical. To be noted: compared with dimethylsphingosine; 37° C. for 20 min; FIG. 3. The procedure: The same experiment was performed on dimethylsphingosine to compare with the effect of dimethylphytosphingosine of the present invention. Sphingosine kinase assay buffer was prepared as follows to determine an activity of sphingosine kinase: 20 mM Tris buffer, pH 7.2, 10 mM MgCl2, 20% glycerol, 1 mM dithiothreitol, 1 mM Na3VO4, 15 mM NaF, […] leupeptin and aprotinin, 1 mM PMSF and 0.5 mM 4-deoxypyridoxine.
The reaction was 200 μl, each 50 μM dimethylsphingosine and dimethylphytosphingosine dissolved in 0.25% Triton X-100, 10 ng of sphingosine kinase from mouse and 1 mM [32P] ATP were added, and reacted at 37° C. for 20 min. After completion of the reaction, the reaction was terminated by adding 20˜50 μl of 1N HCl. Following termination, lipid was separated and purified by adding 1 ml of chloroform, and dried under nitrogen gas. An inhibitory effect against sphingosine kinase was found by measuring isotope with scintillation counter and then determining produced sphingosine-1-phosphate. In the graph, indicated in FIG. 3, Y axis represents CPM and X axis represents concentration (μM).

A further assay deals with Bacillus licheniformis. The assay can be described thus: Antibacterial effect, colony counting. In kind it is cell-based. To be noted: B. licheniformis, FIG. 12. On the procedure:
(§2) The present inventors performed experiment using Bacillus licheniformis (Gram positive bacteria) and E. coli(Gram negative bacteria) to test an antibacterial activity of N,N-dimethylphytosphingosine. In this experiment, autoclaved LB (bactopeptone 10 g/l, yeast extracts 5 g/l, and sodium chloride 10 g/l) or TS (triptone 15 g/l, soitone 5 g/l, and sodium chloride 5 g/l) was used as culture medium, and cultured at 30° C. or 37° C. for 2-3 days. After culturing, an antibacterial capacity was measured by counting the number of cells. […] Each microbe was cultured, diluted successively with 10-fold, smeared on the medium, cultured again, and then dilution rate which formed 30-300 populations per plate medium was determined. After culturing each microbe, the culture was diluted with the determined dilution rate. At this time, 0.85% NaCl was used as a diluted solution. A sample which was prepared by above mentioned method was diluted successively with a solvent for preparing the sample. After obtaining the desired concentration, 1 ml of the diluted sample was added to 9 ml of a diluted solution of microbes, and then mixed thoroughly. After standing at 30° C. or 37° C. for 1 hr (with mixing occasionally), each 100 μl was smeared on the culture medium. After culturing under individual condition, the number of population was measured.

For the next assay, the system named is E. coli. The assay can be described thus: Antibacterial effect, colony counting. In kind it is cell-based. To be noted: FIG. 12. On the procedure:
as §2

For another assay, the system named is MDA-MB-231 cell. The assay can be described thus: MTT assay, apoptosis inducing effect on MDA-MB-231 cell. The following applies: FIG. 8. In kind it is cell-based. The procedure:
as §1
This Experiment was carried out in an identical manner to that described for example 3, except for using MDA-MB-231 cell to induce apoptosis.

The subject of the next assay is HL60 cells. The assay can be described thus: DNA fragmentation by agarose gel electrophoresis. In kind it is cell-based. The following applies: 24 hrs, FIG. 9. The procedure: DNA fragmentation as a representative characteristic of apoptosis was assessed at a level of concentration including cytotoxicity. Apoptosis is a programmed cell death, characterized by complicate biological characteristics including morphological changes, chromatin condensation, a formation of apoptotic body and the like. This experiment was performed to assess DNA fragmentation among them. HL60 cells were seeded (1×10^7 cell/10 ml), and incubated in 5% CO2 incubator at 37° C. for 24 hrs. Then, N,N-dimethylphytosphingosine and control substances (at concentration indicated in FIG. 9) was added and incubated for 24 hrs. All of substances were dissolved in EtOH. Cells were recovered by centrifugation, and then cell membrane was disrupted by adding lysis buffer (5 mM Tris-HCl (PH 7.4), 20 mM EDTA, 0.5% Triton X-100). After centrifuging at 12,000 rpm for 10 min, supernatant in which DNA fragments were dissolved was recovered. To the supernatant was added equivalent amount of phenol, vortexed, centrifuged at 12,000 rpm for 10 min, and then supernatant was recovered carefully. DNA extraction with phenol:chloroform:isoamylalcohol (25:24:1) or chloroform was performed in a same manner as the method with phenol. To the supernatant which was treated by various solvents was added a solution of 0.3 M sodium acetate (pH 5.2) in EtOH, and precipitated in a freezer at −20° C. for 24 hrs. After centrifuging at 12,000 rpm for 10 min, supernatant was decanted to obtain DNA pellets. 70% EtOH was added to the remaining DNA pellets to wash them. Again, after centrifuging, supernatant was discarded, the remaining DNA fragments were dissolved in TE buffer. To remove RNA in addition-to DNA fragments, […] of 0.5 mg/ml RNAse was added, and reacted at 37° C. for 30 min. DNA fragmentation was found by 1.2% agarose gel electrophoresis. […] N-acylsphingosine was known as apoptosis inducing substance, and DNA fragmentation was one example of such effects. […] Accordingly, it is considered that N,N-dimethylphytosphingosine of the present invention has excellent apoptosis inducing effect compared to N-acylsphingosine. It was not observed that CLA ceramide belonging to sphingosineceramide induced DNA fragmentation.
The following is the meaning of the symbols used in FIG. 9. • SM: DNA size marker • EtOH: Ethanol • 1: DMPS 12.5 μM • 2: DMPS 25.0 μM • 3: DMPS 50.0 μM • 4: C2 ceramide 25.0 μM • 5: C2 ceramide 50.0 μM • 6: CLA ceramide 25.0 μM • 7: CLA ceramide 50.0 μM

A further assay relates to protein kinase C(PKC). The assay can be described thus: PKC inhibition effect using epidermis cells of rat. In kind it is cell-based. To be noted: 100 μM and 400 μM; compared with other sphingolipid derivatives; FIG. 11. On the procedure: The present inventors assessed an inhibitory effect of N,N-dimethylphytosphingosine on protein kinase C(PKC) using epidermis cells of rat. Epidermis cells were cultured to 2×10^7 cell/ml. N,N-dimethylphytosphingosine and other sphingolipid derivatives (100 μM and 400 μM respectively) were added, and reacted. The cells were washed with PBS and disrupted with homogenizer. The disruption of cells was centrifuged, and the supernatant was passed through DE52 column to obtain a portion containing protein kinase C. For activated PKC reaction, a tube containing 5 μl of PKC coactivation 5× buffer, PKC activation 5× buffer, PKC biotinylated peptide substrate, [32P]ATP mix respectively were prepared as a control. Also, other individual tubes containing 5 μl of PKC coactivation 5× buffer, control 5× buffer, PKC biotinylated peptide substrate, [32P]ATP mix were prepared further containing 5 μl of the relevant enzyme in each tube. The reaction was performed at 30° C. for 5 min. Thereafter, terminating solution (12.5 μl) was added to quench the reaction. The reaction solution (10 μl) was dropped on SAM2™ membrane, washed with 2 M NaCl (1×, 30 seconds), 2 M NaCl (3×, 2 min), 1% H3PO4 and 2M NaCl solution (4×, 2 min), and distilled water (2×, 30 seconds), dried and then measured isotope to assess the effect of PKC inhibition. The results were in FIG. 11. […]

A further assay concerns LLC-PK1 cell. The assay can be described thus: MTT assay, apoptosis inducing effect on LLC-PK1 cell. In kind it is cell-based. To be noted: FIG. 6. On the procedure:
as §1
This Experiment was carried out in an identical manner to that described for example 3, except for using LLC-PK1 cell to induce apoptosis.

Another assay has as its system HL60 cell. The assay can be described thus: MTT assay, apoptosis inducing effect on HL60 cell. The following applies: 0.5 M˜[…], 24 hrs, FIG. 4. In kind it is cell-based. On the procedure:
An apoptosis inducing effect of N,N-dimethylphytosphingosine was assayed. Anti-cancer effect is expressed through various signal transduction pathway depending on working mechanism and chemical structure, but consequently give rise to apoptosis which allows cells to be killed.
as §1

Assay [2] deals with histone component presented in nucleosome of cytoplasm of cell lysates. The assay can be described thus: Anti-histone antibody binding ELISA (mono- or oligosome detection). In kind it is cell-based. To be noted: FIG. 10. The text has this:
This experiment was based on the theory of ELISA. Briefly, Mono- or oligosome of degraded nucleic acid in cytoplasm can be detected by means of monoclonal antibodies which are specific for histones (H2A, H2B, H3 and H4) and single-stranded or double-stranded DNA. Cells which apoptosis was induced activated Ca2+ and Mg2+-dependent endonuclease, and the enzyme degraded adjacent double stranded DNA to form mono- or oligosome. On this account, histone which had been compactly bound to the DNA in nucleus was exposed to outside.
First, anti-histone antibody was immobilized to 96 well plate. Coating solution was added, and reaction was performed at ambient temperature for 1 hr. Then, each sample was treated to obtain cell lysates, and histone component presented in nucleosome of cytoplasm of cell lysates was adhered to the 96 well plate to which anti-histone antibody was immobilized. Above procedure was performed at 15˜25° C. for 90 min. Then, anti-DNA-peroxidase (POD) was bound to DNA part of nucleosome of cytoplasm. This procedure was performed at ambient temperature for 90 min. Unbound peroxidase conjugate was washed, ABTS(2,2′-azino-di-[3-ethylbenzthiazoline sulfonate]) was added as an substrate, reacted for 10˜20 min, and then absorbance was measured at 405 nm.
For orientation: An ELISA detects its analyte on a solid surface through an enzyme-linked reagent.

In another assay the test system is B104 cell. The assay can be described thus: MTT assay, apoptosis inducing effect on B104 cell. The following applies: FIG. 7. In kind it is cell-based. On the procedure:
as §1
This Experiment was carried out in a manner identical to that described for example 3, except for using B104 cell to induce apoptosis.

As to `CCCCCCCCCCCCCCC(O)C(O)C(CO)N(C)C` (centres unmarked) [N,N-dimethylphytosphingosine], the “cell death (MTT assay)” value with HaCaT cell, in the assay with MDA-MB-231 cell, with LLC-PK1 cell, in the assay with HL60 cell and in the assay on B104 cell was “induced cell death” in each case. Further, the “cell death effect compared to dimethylsphingosine” value in the assay on HaCaT cell, with MDA-MB-231 cell, in the assay on LLC-PK1 cell and with B104 cell was “far superior to that of dimethylsphingosine” in each case. Further, the “inhibitory effect against sphingosine kinase (produced sphingosine-1-phosphate, CPM)” value in assay [1] is reported as “more strong inhibitory effect than that of dimethylsphingosine”. In addition, the “amount of colonies reduced to” value in the assay on Bacillus licheniformis (1 μg/ml) and with E. coli (1 μg/ml) was 40% in each case. The number of colonies entry in the assay on Bacillus licheniformis and in the assay with E. coli was “reduced” throughout. The “DNA fragmentation (electrophoresis), result in words” value in the assay with HL60 cells (DMPS 12.5-50.0 μM, C2 ceramide and CLA ceramide 25.0 and 50.0 μM) was “obvious ladder-like DNA fragmentation at a lower concentration compared to C2-ceramide”. For the same compound, the “concentration at which DNA fragmentation was induced” value with HL60 cells came to 25.0 µM. Further, the “degree of DNA fragmentation compared to C2 ceramide” value with HL60 cells is “stronger than C2 ceramide”. Besides, the “inhibitory effect on PKC” value with protein kinase C(PKC) is reported as “stronger inhibitory effect than any other compound”. Also, the “absorbance (A405 nm-A490 nm), anti-histone antibody binding” value in assay [2] was “higher absorbance (A405 nm-A490 nm) than other controls”.

Turning to `CCCCCCCCCCCCC/C=C/[C@@H](O)[C@H](CO)NC(C)=O` [C2-ceramide, N-acylsphingosine, reference compound], in the assay on HL60 cells, the “concentration at which DNA fragmentation was induced” value turned out to be 25.0 µM.
